Assay results from ChEMBL document CHEMBL1201862, “PubChem BioAssay data set” (2004).
The source made the active and inactive calls.

Experiments:
[1] = A Cell-Based Confirmatory Screen for Compounds that Inhibit VEEV, TC-83 (8).; type: functional
[2] = molecular target: T1, Aminopeptidase N (Plasmodium falciparum FcB1/Columbia, UniProt O96935); assay: malaria alanyl aminopeptidase activity blockers – biochemical, fluorogenic H-Leu-NHMec substrate, 1536-well (AID 1445); set-up: species or system Plasmodium falciparum 3D7, 3D7
T1 sequence (O96935 whole entry): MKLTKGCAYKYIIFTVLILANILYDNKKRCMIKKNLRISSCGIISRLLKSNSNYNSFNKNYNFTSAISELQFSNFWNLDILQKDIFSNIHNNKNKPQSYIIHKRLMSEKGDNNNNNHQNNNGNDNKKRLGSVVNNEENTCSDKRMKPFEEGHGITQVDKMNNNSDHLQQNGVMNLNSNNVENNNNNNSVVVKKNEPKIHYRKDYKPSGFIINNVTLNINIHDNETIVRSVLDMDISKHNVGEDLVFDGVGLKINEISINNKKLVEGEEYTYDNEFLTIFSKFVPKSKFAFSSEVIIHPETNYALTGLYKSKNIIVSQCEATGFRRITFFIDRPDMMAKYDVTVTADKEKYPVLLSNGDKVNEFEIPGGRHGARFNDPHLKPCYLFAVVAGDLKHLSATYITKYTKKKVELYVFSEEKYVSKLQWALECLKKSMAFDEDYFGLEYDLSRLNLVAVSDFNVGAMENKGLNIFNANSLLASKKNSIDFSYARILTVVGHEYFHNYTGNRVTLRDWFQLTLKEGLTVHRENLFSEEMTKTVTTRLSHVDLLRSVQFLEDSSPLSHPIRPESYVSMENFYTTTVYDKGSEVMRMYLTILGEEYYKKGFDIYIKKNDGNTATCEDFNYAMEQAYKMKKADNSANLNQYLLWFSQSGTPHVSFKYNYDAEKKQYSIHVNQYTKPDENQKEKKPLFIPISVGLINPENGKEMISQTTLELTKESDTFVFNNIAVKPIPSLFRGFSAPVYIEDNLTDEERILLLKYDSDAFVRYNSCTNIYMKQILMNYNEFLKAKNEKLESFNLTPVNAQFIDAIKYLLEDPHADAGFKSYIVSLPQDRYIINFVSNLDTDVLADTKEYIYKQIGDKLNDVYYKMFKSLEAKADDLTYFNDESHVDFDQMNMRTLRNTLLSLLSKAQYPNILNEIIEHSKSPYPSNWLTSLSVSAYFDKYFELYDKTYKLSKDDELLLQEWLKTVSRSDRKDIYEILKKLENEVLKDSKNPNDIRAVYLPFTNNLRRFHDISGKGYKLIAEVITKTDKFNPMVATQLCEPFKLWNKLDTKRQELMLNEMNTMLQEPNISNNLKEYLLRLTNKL

[3] = molecular target: Endoplasmic reticulum aminopeptidase 1 (Homo sapiens, UniProt Q9NZ08); assay: inhibition of human ERAP1 enzyme activity – biochemical, cherry-pick, set 2, plate reader, dose response (AID 743314)
Sequence of Endoplasmic reticulum aminopeptidase 1 (Q9NZ08 whole entry): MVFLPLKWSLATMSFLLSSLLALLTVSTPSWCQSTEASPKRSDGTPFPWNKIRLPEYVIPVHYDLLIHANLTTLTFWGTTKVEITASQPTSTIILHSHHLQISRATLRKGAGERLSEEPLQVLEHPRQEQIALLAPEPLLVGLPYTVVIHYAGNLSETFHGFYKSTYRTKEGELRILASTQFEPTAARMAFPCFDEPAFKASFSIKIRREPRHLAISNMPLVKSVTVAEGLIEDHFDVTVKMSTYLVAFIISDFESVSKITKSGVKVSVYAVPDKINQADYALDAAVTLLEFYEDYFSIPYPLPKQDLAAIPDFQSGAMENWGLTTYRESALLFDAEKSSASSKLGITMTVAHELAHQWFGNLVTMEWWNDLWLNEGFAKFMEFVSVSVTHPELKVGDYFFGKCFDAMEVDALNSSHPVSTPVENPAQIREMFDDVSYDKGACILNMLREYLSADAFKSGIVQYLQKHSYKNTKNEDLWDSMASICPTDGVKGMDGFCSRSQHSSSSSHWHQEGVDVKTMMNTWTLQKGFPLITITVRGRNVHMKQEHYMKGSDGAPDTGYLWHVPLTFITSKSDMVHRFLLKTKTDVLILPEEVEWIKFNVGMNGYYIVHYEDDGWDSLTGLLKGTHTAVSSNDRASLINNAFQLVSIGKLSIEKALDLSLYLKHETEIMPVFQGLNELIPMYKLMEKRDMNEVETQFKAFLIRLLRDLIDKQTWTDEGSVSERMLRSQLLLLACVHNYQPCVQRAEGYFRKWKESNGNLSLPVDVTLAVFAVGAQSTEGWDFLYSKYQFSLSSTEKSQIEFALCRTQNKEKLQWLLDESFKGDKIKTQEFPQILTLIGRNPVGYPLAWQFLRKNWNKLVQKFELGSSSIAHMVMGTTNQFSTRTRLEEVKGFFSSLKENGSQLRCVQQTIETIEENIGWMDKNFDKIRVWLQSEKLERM

[4] = molecular target: T2, Protein skinhead-1 (Caenorhabditis elegans, UniProt P34707); type: functional
T2 sequence (P34707 whole entry): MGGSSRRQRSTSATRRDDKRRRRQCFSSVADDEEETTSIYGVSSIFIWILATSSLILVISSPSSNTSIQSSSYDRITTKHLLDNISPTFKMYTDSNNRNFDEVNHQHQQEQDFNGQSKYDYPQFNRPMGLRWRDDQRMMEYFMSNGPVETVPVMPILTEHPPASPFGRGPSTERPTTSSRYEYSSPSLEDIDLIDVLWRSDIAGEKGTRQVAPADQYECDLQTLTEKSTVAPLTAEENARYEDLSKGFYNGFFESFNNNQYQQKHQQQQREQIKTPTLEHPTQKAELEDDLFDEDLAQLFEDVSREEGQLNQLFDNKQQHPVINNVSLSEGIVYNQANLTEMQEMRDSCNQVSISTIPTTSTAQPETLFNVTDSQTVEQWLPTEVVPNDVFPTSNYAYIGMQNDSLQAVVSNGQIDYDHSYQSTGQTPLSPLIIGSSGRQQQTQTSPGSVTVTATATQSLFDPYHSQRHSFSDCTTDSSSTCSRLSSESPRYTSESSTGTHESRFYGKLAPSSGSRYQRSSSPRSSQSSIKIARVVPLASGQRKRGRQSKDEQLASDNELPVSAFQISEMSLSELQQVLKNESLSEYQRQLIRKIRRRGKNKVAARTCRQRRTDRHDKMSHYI

[5] = test system: HeLa; assay: ATP-based viability loss in HeLa cells – cell-based, CellTiter-Glo luminescence, cherry-pick samples, cytotoxicity control for MITF activator project, dose response (AID 540259); type: functional; details: Homo sapiens
[6] = molecular target: T3, Oxysterols receptor LXR-beta (Homo sapiens, UniProt P55055); type: functional, cell-based;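 note: agonist activity at LXR measured by a cell-based luminescence readout across a dose range, run as a counterscreen for daf-12 agonists; HEK293 cells with Gal4-LXR fusion and GAL4-driven luciferase reporter; potency for activation of Gal4-LXR reporter so compounds are agonists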
T3 sequence (P55055 whole entry): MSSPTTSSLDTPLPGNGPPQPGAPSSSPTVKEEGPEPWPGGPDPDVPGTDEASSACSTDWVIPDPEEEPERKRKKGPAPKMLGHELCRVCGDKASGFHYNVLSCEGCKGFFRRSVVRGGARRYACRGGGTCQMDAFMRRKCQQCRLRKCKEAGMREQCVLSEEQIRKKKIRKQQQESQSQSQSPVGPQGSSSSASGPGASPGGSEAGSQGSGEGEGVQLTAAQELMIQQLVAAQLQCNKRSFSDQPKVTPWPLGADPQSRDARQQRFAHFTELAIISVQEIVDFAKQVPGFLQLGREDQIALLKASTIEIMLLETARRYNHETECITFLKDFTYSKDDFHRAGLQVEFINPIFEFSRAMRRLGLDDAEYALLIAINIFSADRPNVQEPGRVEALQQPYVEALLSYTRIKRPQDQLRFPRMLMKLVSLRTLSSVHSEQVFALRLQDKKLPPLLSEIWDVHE

[7] = molecular target: T4, Sentrin-specific protease 8 (Homo sapiens, UniProt Q96LD8); type: functional
T4 sequence (Q96LD8 whole entry): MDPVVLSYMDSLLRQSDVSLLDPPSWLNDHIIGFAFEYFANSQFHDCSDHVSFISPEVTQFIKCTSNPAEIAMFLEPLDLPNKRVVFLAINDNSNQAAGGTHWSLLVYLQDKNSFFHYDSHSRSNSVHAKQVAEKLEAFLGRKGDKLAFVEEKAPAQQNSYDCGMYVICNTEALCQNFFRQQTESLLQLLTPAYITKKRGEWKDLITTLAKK

[8] = molecular target: T4, Sentrin-specific protease 8; type: functional; remark: listed apart in the source
[9] = molecular target: Fructose-bisphosphate aldolase (Mycobacterium tuberculosis, UniProt P9WQA3); assay: Fluorescence-based biochemical high throughput dose response assay for inhibitors of the fructose-bisphosphate aldolase (FBA) of M. tuberculosis.; type: functional
Sequence of Fructose-bisphosphate aldolase (P9WQA3 whole entry): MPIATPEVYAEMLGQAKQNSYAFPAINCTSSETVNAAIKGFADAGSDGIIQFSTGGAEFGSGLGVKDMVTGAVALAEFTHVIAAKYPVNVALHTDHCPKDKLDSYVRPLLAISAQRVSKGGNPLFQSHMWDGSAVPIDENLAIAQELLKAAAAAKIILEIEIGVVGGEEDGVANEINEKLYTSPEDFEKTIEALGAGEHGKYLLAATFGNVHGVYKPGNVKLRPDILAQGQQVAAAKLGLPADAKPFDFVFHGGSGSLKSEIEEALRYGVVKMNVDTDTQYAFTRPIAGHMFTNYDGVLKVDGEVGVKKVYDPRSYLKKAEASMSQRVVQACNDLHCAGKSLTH

[10] = viability of BHK-21 cells – cell-based, secondary screen, cytotoxicity control for flavivirus guanylyltransferase probe project (AID 624078); type: functional
[11] = A549 cell cytotoxicity, dose response, cytotoxicity control, plate reader, cherry-pick, antagonist series (AID 743412); type: functional, cell-based
[12] = inhibition of bursicon-driven LGR2 cAMP signaling – cell-based, HEK293, CRE-luciferase reporter, cherry pick, dose response (AID 743342); type: functional
[13] = MITF Orthogonal Assay: SK-MEL-5 CTG Assay Measured in Cell-Based System Using Plate Reader - 2084-02_Inhibitor_Dose_DryPowder_Activity_Set7.; type: functional
[14] = MITF: Counter assay: A375 proliferation Measured in Cell-Based System Using Plate Reader - 2084-03_Inhibitor_Dose_DryPowder_Activity_Set8.; type: functional; details: A-375
[15] = molecular target: fMet-Leu-Phe receptor (Homo sapiens, UniProt P21462); assay: formyl peptide receptor binders – dose response (AID 519); type: functional
Sequence of fMet-Leu-Phe receptor (P21462 whole entry): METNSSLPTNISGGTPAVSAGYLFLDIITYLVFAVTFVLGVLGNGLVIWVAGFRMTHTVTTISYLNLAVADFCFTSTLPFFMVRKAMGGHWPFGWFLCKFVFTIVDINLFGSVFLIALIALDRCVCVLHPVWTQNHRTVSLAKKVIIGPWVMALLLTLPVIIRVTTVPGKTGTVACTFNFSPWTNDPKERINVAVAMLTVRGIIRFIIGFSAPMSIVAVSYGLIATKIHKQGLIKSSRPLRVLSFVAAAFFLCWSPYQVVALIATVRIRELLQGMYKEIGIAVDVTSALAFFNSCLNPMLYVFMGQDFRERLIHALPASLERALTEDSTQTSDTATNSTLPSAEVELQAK

[16] = molecular target: Nonstructural protein 1 (Influenza A virus, UniProt Q194T2); type: functional, Influenza A virus (A/California/07/2009(H1N1))
Sequence of Nonstructural protein 1 (Q194T2 whole entry): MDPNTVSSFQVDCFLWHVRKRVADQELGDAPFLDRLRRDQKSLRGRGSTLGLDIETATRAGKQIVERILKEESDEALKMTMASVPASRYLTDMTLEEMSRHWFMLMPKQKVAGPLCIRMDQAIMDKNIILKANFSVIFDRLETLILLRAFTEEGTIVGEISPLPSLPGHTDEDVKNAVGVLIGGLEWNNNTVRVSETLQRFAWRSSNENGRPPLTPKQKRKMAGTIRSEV

[17] = molecular target: Protein S100-A4 (Homo sapiens, UniProt P26447); assay: human S100A4 peptide interaction inhibition curves – biochemical, fluorescence polarization, cherry-picked hits, dose response (AID 687001); type: functional
Sequence of Protein S100-A4 (P26447 whole entry): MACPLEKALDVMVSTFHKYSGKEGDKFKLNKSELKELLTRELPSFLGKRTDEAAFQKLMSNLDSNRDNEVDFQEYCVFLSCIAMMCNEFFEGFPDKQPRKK

[18] = molecular target: Albumin (Bos taurus, UniProt P02769); assay: Counterscreen for inhibitors of T-cell receptor (TCR)-CD3 interaction: Fluorescence-based biochemical high throughput dose response assay to identify inhibitors of T-cell receptor (TCR)-CD3 interaction using a TAMRA-labeled BSA probe.; type: functional
[19] = molecular target: T5, Probable nicotinate-nucleotide adenylyltransferase (Staphylococcus aureus (strain N315), UniProt P65502); type: functional, Staphylococcus aureus subsp. aureus N315;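 for IC50 Mean: confirmatory dose-response retesting of NadD inhibitor hits first found in an ultra-high-throughput screen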
T5 sequence (P65502 whole entry): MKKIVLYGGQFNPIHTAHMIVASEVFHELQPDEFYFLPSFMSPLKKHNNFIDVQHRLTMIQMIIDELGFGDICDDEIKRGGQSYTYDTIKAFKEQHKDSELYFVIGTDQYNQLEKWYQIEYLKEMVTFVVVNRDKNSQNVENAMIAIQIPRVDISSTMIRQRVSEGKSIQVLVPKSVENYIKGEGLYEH

[20] = test system: H9c2; assay: cells; type: functional, cell-based; details: Rattus norvegicus, H9c2, Myocardium;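 note: confirmatory concentration-response retest of ultra-high-throughput screening hits for modulation of myocardial damage; cell death induced by hydrogen peroxide oxidative stress; compound pretreatment for 60 min then peroxide exposure for 2 h; potency is for protecting the cells against peroxide damage rather than for killing them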
[21] = molecular target: T5, Probable nicotinate-nucleotide adenylyltransferase; type: functional, Staphylococcus aureus subsp. aureus N315; details: read-out: IC50_Mean
[22] = molecular target: Potassium channel subfamily K member 9 (Homo sapiens, UniProt Q9NPC2); assay: KCNK9 flux blockade, concentration-response – cell-based, FluxOR thallium flux, selectivity assay for TASK1 inhibitor project, SAR follow-up (AID 652211); type: functional;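 note: potency is for inhibitors of the channel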
[23] = molecular target: Potassium channel subfamily K member 3 (Homo sapiens, UniProt O14649); assay: inhibition of human KCNK3 channel flux – CHO cells, FluxOR thallium flux, SAR follow-up (AID 652212); type: functional
Sequence of Potassium channel subfamily K member 3 (O14649 whole entry): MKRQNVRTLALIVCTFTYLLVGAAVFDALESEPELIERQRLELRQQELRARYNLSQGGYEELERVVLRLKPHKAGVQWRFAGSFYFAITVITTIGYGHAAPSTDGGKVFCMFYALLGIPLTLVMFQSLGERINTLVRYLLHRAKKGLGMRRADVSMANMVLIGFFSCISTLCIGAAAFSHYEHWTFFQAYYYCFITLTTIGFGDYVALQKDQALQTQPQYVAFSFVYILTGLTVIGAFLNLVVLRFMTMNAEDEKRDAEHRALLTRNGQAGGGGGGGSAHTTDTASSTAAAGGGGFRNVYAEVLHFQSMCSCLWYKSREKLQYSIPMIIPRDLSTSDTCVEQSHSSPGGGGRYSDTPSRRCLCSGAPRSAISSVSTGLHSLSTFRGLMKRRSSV

[24] = molecular target: T6, Scavenger receptor class B member 1 (Mus musculus, UniProt Q61009); assay: blockers of DiI-HDL lipid transfer via SR-BI – cell-based, ldlA[mSR-BI] CHO, DiI fluorescence, dry powder, set 10, dose response (AID 624029); type: functional
T6 sequence (Q61009 whole entry): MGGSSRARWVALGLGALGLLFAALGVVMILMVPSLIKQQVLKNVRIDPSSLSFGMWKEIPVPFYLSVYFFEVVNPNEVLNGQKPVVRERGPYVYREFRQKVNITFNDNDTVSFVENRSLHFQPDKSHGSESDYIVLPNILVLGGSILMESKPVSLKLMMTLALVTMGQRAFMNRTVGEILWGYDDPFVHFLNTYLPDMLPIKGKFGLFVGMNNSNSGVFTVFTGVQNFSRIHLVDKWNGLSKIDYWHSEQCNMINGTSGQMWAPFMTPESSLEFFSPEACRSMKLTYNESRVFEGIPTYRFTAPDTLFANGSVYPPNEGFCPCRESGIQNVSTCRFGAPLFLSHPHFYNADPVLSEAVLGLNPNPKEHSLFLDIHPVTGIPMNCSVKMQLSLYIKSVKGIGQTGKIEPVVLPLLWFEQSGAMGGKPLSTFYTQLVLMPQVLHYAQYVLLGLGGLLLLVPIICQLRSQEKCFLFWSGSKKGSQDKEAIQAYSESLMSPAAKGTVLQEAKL

[25] = molecular target: T6, Scavenger receptor class B member 1; assay: mouse SR-BI DiI-HDL transfer blockers – ldlA[mSR-BI] CHO cells, fluorescence plate reader, dry powder, set 9, dose response (AID 623880); type: functional, cell-based
[26] = molecular target: Arf-GAP with SH3 domain, ANK repeat and PH domain-containing protein 1 (Homo sapiens, UniProt Q9ULH1); type: functional;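 note: biochemical fluorescence polarization dose–response screen measuring inhibition of ASAP1; ASAP1 GAP domain stimulating GTP hydrolysis by truncated human ARF1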
Sequence of Arf-GAP with SH3 domain, ANK repeat and PH domain-containing protein 1 (Q9ULH1 whole entry, the tested form may be a part): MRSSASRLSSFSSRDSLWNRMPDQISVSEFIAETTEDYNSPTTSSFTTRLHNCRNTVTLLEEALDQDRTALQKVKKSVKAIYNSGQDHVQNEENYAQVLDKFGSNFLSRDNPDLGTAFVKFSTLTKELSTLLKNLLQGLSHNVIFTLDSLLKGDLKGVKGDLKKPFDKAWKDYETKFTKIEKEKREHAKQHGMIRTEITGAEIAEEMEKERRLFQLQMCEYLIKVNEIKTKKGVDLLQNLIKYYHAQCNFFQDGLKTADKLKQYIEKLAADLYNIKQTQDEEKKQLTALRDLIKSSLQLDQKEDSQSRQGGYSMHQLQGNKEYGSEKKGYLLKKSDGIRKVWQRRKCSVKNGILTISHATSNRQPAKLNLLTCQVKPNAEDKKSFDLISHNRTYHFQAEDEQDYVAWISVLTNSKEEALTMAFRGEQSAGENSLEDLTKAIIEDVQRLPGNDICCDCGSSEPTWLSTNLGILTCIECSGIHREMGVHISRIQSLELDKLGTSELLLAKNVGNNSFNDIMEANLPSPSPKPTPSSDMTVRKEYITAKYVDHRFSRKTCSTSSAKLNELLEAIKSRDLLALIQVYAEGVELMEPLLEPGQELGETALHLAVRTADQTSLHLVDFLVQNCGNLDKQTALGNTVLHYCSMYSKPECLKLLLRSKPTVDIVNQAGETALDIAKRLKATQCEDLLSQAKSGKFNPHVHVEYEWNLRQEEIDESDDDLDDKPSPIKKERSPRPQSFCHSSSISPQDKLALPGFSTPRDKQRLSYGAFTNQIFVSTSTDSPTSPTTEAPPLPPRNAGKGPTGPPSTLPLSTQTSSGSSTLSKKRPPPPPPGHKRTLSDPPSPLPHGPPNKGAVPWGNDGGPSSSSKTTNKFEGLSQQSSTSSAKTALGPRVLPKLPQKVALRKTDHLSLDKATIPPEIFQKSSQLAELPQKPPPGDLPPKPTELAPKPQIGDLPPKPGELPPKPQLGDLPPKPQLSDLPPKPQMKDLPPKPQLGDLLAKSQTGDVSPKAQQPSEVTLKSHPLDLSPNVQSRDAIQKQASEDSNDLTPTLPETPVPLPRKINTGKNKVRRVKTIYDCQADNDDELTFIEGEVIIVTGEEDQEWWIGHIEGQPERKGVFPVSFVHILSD

[27] = viability of uninfected HEp-2 cells – cell-based, HTS, cytotoxicity control for RSV inhibitor project, dose response (AID 2410); type: functional; details: human respiratory syncytial virus
[28] = molecular target: NS3 (Hepatitis C virus, UniProt A3EZJ3); assay: NS3h DNA-binding inhibition IC50 – biochemical, fluorescence polarization, ChemBridge library, dose response (AID 743264)
[29] = cells
[30] = molecular target: T7, Methionyl-tRNA synthetase, putative (Trypanosoma brucei brucei, UniProt Q38C91); type: functional, Trypanosoma brucei brucei strain 927/4 GUTat10.1
T7 sequence (Q38C91 whole entry): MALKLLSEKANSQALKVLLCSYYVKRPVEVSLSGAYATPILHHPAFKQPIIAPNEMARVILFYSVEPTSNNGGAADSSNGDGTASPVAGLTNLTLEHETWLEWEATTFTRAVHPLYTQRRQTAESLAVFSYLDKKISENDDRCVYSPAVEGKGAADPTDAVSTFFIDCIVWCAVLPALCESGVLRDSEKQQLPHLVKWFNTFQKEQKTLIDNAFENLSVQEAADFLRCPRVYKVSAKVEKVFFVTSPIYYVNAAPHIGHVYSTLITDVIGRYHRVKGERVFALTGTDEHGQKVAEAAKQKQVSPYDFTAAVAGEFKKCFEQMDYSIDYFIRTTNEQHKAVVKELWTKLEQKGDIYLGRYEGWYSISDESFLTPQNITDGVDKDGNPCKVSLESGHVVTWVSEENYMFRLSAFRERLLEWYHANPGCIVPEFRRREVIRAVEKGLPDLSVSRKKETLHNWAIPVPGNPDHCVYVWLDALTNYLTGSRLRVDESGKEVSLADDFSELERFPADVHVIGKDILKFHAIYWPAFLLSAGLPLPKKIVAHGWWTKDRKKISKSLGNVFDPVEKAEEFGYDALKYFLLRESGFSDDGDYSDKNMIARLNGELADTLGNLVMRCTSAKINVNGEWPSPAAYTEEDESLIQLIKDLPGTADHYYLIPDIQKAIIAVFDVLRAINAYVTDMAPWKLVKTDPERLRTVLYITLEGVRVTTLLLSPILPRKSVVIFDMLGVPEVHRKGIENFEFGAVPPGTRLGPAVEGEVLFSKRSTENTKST

[31] = molecular target: T7, Methionyl-tRNA synthetase, putative; type: functional, Trypanosoma brucei brucei strain 927/4 GUTat10.1; remark: listed apart in the source
[32] = Counterscreen for inhibitors of Trypanosoma brucei methionyl tRNA synthetase (MetRS): Luminescence-based cell-based high throughput dose response assay to identify compounds that are cytotoxic to Jurkat human T lymphocyte cells.; type: functional

For CCN1CCN(C)C/C1=N\c1ccc([N+](=O)[O-])cc1C(=O)Nc1ccccc1, the IC50 [1] was < 0.22 µM (active).
With CN1CCN(Cc2c(O)ccc3cc(-c4ccccn4)c(=O)oc23)CC1 the IC50 [2] was 52.2 µM (active) and the AC50 [3] was 1.88 µM (active).
With C/C(=N/OCc1ccc(Br)cc1)c1ccccn1 the IC50 [4] was 34.5 µM (active), the AC50 [5] was 90.3 µM (active) and the EC50 [6] was > 67.6 µM (inactive).
In the case of CCCCO/C(O)=C1\C(C)=NC2(O)c3ccccc3C(=O)C12O (configuration not stated), the IC50 [7] is reported as 10 µM (active) and the IC50 [8] is reported as 4.54 µM (active).
With Cc1nc2oc3c(=O)nc[nH]c3c2c2c1COC(C)(C)C2 the IC50 [9] was 2.33 µM (active).
With O=C(O)CSc1cc(NS(=O)(=O)c2cccc3cccnc23)c2ccccc2c1O the CC50 [10] was 6.1 µM (active).
For C[C@H]1CCCCO[C@@H](CN(C)C(=O)Nc2ccccc2)[C@@H](C)CN([C@@H](C)CO)C(=O)c2cc(NC(=O)NC3CCCCC3)ccc2O1, the AC50 [11] was 43.3 µM (active) and the AC50 [12] was 5.33 µM (active).
With O=C1C=C(Nc2ccc(F)cc2)C(=O)c2ccccc21 the AC50 [13] was 0.595 µM (active) and the AC50 [14] was > 70 µM (inactive).
With CSc1ccccc1NS(=O)(=O)c1ccccc1 the Ki [15] was > 66.7 µM (inactive).
In the case of CC1N(C)c2cc(NC(=O)c3ccco3)ccc2C1(C)C (configuration not stated), the IC50 [16] is reported as 69.6 µM (active) and the AC50 [17] is reported as 1.91 µM (active).
In the case of CCOC(=O)Cn1/c(=N/C(=O)c2cc(-c3cccs3)nc3ccccc23)sc2cc(S(N)(=O)=O)ccc21, the IC50 [18] is reported as > 94.1 µM (inactive), the IC50 [19] is reported as 14.2 µM (active) and the IC50 [20] is reported as > 79 µM (inactive). The IC50 [21] was 31.4 µM (active).
In the case of COc1ccc(F)cc1C(=O)Nc1cccc(NC(=O)c2cccc(C)c2)c1, the IC50 [22] is reported as 0.87 µM (active) and the IC50 [23] is reported as 0.225 µM (active).
In the case of C[C@@H]1CN([C@H](C)CO)C(=O)c2cc(NC(=O)C3CCCCC3)ccc2O[C@H]1CN(C)S(=O)(=O)c1cccc(Cl)c1, the AC50 [24] is reported as 1.22 µM (active) and the AC50 [25] is reported as 0.796 µM (active).
In the case of Fc1ccc(Nc2nc(-c3ccncc3)nc3ccccc23)cc1F, the IC50 [26] is reported as 46.5 µM (inactive) and the CC50 [27] is reported as 45.1 µM (active).
For Cc1ccc(C)n1NC1=NC(=O)CS1, the IC50 [28] was 27.2 µM (inactive).
For CC(=O)OC[C@@H]1CN(Cc2ccccc2)C[C@H](n2cnc3c(N(C)C(C)C)ncnc32)O1, the AC50 [29] was 28.8 µM (active).
With COc1ccc(OCc2cc(C(=O)NCc3nc(C)cs3)no2)c(Cl)c1 the IC50 [30] was 46.9 µM (inactive), the IC50 [31] was 23.5 µM (inactive) and the IC50 [32] was 83.3 µM (inactive).
